Assay results taken from patent US20110033946A1, “DETECTION OF SHORT-CHAIN FATTY ACIDS IN BIOLOGICAL SAMPLES” (HEMAQUEST PHARMACEUTICALS, INC., priority 2009, published 2011).
Where “and” joins values, the source holds several entries; their conditions need not be identical. Identical values can stand only once. Like-named read-outs stand apart in the source and are kept apart here.

Experiments:
[1] = type: physicochemical, human; conditions: for Bench top stability, Mean concentration / Bench top stability, RE % (mean vs nominal): human, 22.5 h
Experimental: The following samples were also analyzed either in conjunction with one of the precision and accuracy runs or in one of the additional validation runs. Samples from six lots of control human plasma for specificity. Samples from six lots of control human plasma fortified with internal standard for specificity. Two concentration levels of unextracted QC-samples in triplicate (solvent standards) were analyzed for the evaluation of the recovery of sodium 2,2-dimethylbutyrate and DMV in human plasma. Two levels of QC samples (Low QC and High QC in triplicate) were subjected to three freeze/thaw cycles at approximately −70° C. prior to extraction to evaluate freeze/thaw stability. […] Triplicate low QC samples and triplicate high QC samples were stored for one month and three months in a freezer at approximately −70° C., and then extracted and analyzed to evaluate long term stability in human plasma. Two levels of extracted QC samples (Low QC and High QC) were re-analyzed after approximately 71 hours in the autosampler at room temperature to evaluate the extract autosampler stability. Two levels of extracted QC samples (Low QC and High QC) were re-analyzed after approximately 8 hours in the freezer at approximately −20° C. to evaluate the extract freeze stability. Three aliquots of a dilution QC sample diluted 10-fold. Triplicate dilutions of the old stock solution (stored at approximately 4° C.) and new stock solutions prepared at intervals of two weeks and one month. Statistical calculations in the report tables were calculated from unrounded concentration values taken directly from the raw data. The concentration values were rounded for display purposes.
(§1) Triplicate QC-Low and QC-High samples were extracted and analyzed after these storage conditions. The CV % values for the QC-Low and QC-High stability samples are 7.8% and 2.9%, respectively. To calculate the RE %, the measured mean concentration was compared to the nominal concentration. The RE % values for the QC-Low and QC-High stability samples are 11.8% and −3.4%, respectively.

[2] = type: physicochemical, rat; conditions: for Mean concentration, QC-Low / RE %, QC-Low / Measured concentration, QC-Low: nominal 0.60 μg/mL; for Measured concentration, QC-Low / Measured concentration, QC-High: individual replicates; for Mean concentration, QC-High / RE %, QC-High / Measured concentration, QC-High: nominal 40.0 μg/mL; for Long-term freezer stability, RE %: rat, 0.6 μg/mL
Experimental: (§2) For the remaining validation tests, a calibration curve and triplicates QCs at the low, mid and high levels were analyzed with each sample set. The following samples were also analyzed either in conjunction with one of the precision and accuracy runs or in one of the additional validation runs: Samples from six lots of control rat plasma for specificity; Samples from six lots of control rat plasma fortified with internal standard for specificity; Two concentration levels of unextracted QC-samples in triplicate (solvent standards) were analyzed for the evaluation of the recovery of sodium 2,2-dimethylbutyrate and DMV in rat plasma; Two levels of QC samples (Low QC and High QC in triplicate) were subjected to three freeze/thaw cycles at approximately −70° C. prior to extraction to evaluate freeze/thaw stability; Two levels of QC samples (Low QC and High QC in triplicate) were placed on the bench top for approximately 17 hours prior to extraction for the evaluation of the bench top stability; Triplicate low QC samples and triplicate high QC samples were stored for one month and three months in a freezer at approximately −70° C., and then extracted and analyzed to evaluate long term stability in rat plasma; Three aliquots of a dilution QC sample diluted 10-fold.
QC-Low and QC-High plasma samples, which had been stored in a freezer at approximately −70° C. for one month and three months (98 days), were extracted in triplicate and analyzed. At the one month interval, the RE % was −24.1% for the QC-Low level. This may have been an anomaly since at the QC-Low level for the three month interval, the RE % was 4.1%. All CV % values and RE % values at the 98 day interval were within the acceptance criteria (≦15% and ±15% respectively). Therefore, sodium 2,2-dimethylbutyrate can be considered stable in rat plasma at approximately −70° C. for at least […].

[3] = Stock solution stability at nominal 4° C. (Example 5); type: physicochemical; conditions: nominal temperature of 4° C.
Experimental: In method I, the mobile phase of liquid chromatography was run on 0.1% formic acid in acetonitrile, and the elution volume was 10 ul. In method II, the mobile phase was run in 0.1% formic acid in methanol/water (98/2, volume to volume), and the elution volume was 5 ul.

[4] = Freeze/thaw stability in human urine; type: physicochemical; conditions: stored at −70° C. and thawed, repeated twice, 0.3, 19 and 38 μg/ml
Experimental: The applicability of the testing methodology to analyze samples stored under different conditions was analyzed. First, to assess short-term stability of DMB in human urine, samples at 0.3, 19 and 38 μg/ml, 92.3% of DMB were maintained unextracted at room temperature and at bench-top light levels for six hours. […] Second, to assess freeze/thaw stability of DMB in human urine, samples at 0.3, 19 and 38 μg/ml, 92.3% of DMB were stored at −70° C. and thawed. This process was repeated twice and samples after each freezing were analyzed for DMB as described. For each concentration and each freezing/thawing sample, the % CV was no more than 15%.

[5] = type: physicochemical, dog; conditions: for Bench top stability, Mean concentration / Bench top stability, RE % (mean vs nominal): dog, 17 h
Experimental: as §2, with “control dog” for “control rat”, “for specificity.” for “for specificity; Samples from six lots of control rat plasma fortified with internal standard for specificity;”, “in dog plasma.” for “in rat plasma;”, “freeze/thaw stability.” for “freeze/thaw stability;”, “top stability.” for “top stability;”
as §1, with “Bench top stability was evaluated at room temperature for approximately 17 hours. Triplicate” for “Triplicate”, “3.2%” for “7.8%”, “3.4%,” for “2.9%,”, “2.1%” for “11.8%”, “−10.7%,” for “−3.4%,”

[6] = rat plasma, approximately −70° C., 1 Month Interval
[7] = rat plasma, approximately −70° C., 3 Month Interval

## CCC(C)(C)C(=O)[O-].[Na+] [Sodium 2,2-Dimethylbutyrate]
[1]; human plasma, ambient bench top storage
  Time stable on bench top: 22.5 h
[1]; 0.6 μg/mL
  Bench top stability, Mean concentration: 0.671 µg/mL
  Bench top stability, RE % (mean vs nominal): 11.8%
[1]; 40 μg/mL
  Bench top stability, Mean concentration: 38.7 µg/mL
  Bench top stability, RE % (mean vs nominal): −3.4%
[2]; [6]
  Mean concentration, QC-Low: 0.456 µg/mL
  RE %, QC-Low: −24.1%
  Measured concentration, QC-Low: 0.410 µg/mL and 0.484 µg/mL and 0.473 µg/mL
  Mean concentration, QC-High: 34.7 µg/mL
  RE %, QC-High: −13.3%
  Measured concentration, QC-High: 35.4 µg/mL and 34.3 µg/mL and 34.4 µg/mL
[2]; [7]
  Mean concentration, QC-Low: 0.62 µg/mL
  RE %, QC-Low: 4.1%
  Measured concentration, QC-Low: 0.663 μg/mL and 0.605 μg/mL (2×)
  Mean concentration, QC-High: 37.2 µg/mL
  RE %, QC-High: −7.1%
  Measured concentration, QC-High: 38.0 μg/mL (2×) and 35.5 μg/mL
[2]; rat plasma, approximately −70° C.
  Time stable in freezer: at least 99 days
[2]; 1 month
  Long-term freezer stability, RE %: −24.1%
[2]; 98 days
  Long-term freezer stability, RE %: 4.1%
[3]
  Time stock solutions are stable: at least 115 days
[4]
  % CV after freeze/thaw: no more than 15%
[5]; dog plasma, ambient bench top storage
  Time stable on bench top: approximately 17 hours
[5]; 0.6 μg/mL
  Bench top stability, Mean concentration: 0.613 µg/mL
  Bench top stability, RE % (mean vs nominal): 2.1%
[5]; 40 μg/mL
  Bench top stability, Mean concentration: 35.7 µg/mL
  Bench top stability, RE % (mean vs nominal): −10.7%
